According to the supplement of paper PMC10307832:

Assays:
Test in all cases: relative viability (nuclei count vs DMSO), 5 days (fraction); higher = more cells survive
Bosutinib + Bortezomib = compound: COc1cc(Nc2c(C#N)cnc3cc(OCCCN4CCN(C)CC4)c(OC)cc23)c(Cl)cc1Cl [Bosutinib] + CC(C)C[C@H](NC(=O)[C@H](Cc1ccccc1)NC(=O)c1cnccn1)B(O)O [Bortezomib] (partner 0.002 µM)
How it was run: (§1)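 Lung cancer cell lines, seeded in 1536-well plates, were treated the following day by pin tool with a single drug or with five library-drug doses (not always all listed) in √10 steps on top of a fixed anchor-drug dose. Cells were fixed and nuclei stained in one step after 5 days, and nuclei were counted. Relative viability is the nuclei count for treated wells divided by that for vehicle wells, reported as medians of duplicate plates.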

Bosutinib + Linsitinib = compound: COc1cc(Nc2c(C#N)cnc3cc(OCCCN4CCN(C)CC4)c(OC)cc23)c(Cl)cc1Cl [Bosutinib] + C[C@]1(O)C[C@@H](c2nc(-c3ccc4ccc(-c5ccccc5)nc4c3)c3c(N)nccn32)C1 [Linsitinib] (partner 1 µM)
How it was run: as §1

Bosutinib + Tozasertib = compound: COc1cc(Nc2c(C#N)cnc3cc(OCCCN4CCN(C)CC4)c(OC)cc23)c(Cl)cc1Cl [Bosutinib] + Cc1cc(Nc2cc(N3CCN(C)CC3)nc(Sc3ccc(NC(=O)C4CC4)cc3)n2)n[nH]1 [Tozasertib] (partner 0.1 µM)
How it was run: as §1

Bosutinib + Phenformin = compound: COc1cc(Nc2c(C#N)cnc3cc(OCCCN4CCN(C)CC4)c(OC)cc23)c(Cl)cc1Cl [Bosutinib] + N=C(N)NC(=N)NCCc1ccccc1 [Phenformin] (partner 250 µM)
How it was run: as §1

Bosutinib + Pemetrexed = compound: COc1cc(Nc2c(C#N)cnc3cc(OCCCN4CCN(C)CC4)c(OC)cc23)c(Cl)cc1Cl [Bosutinib] + Nc1nc2[nH]cc(CCc3ccc(C(=O)N[C@@H](CCC(=O)O)C(=O)O)cc3)c2c(=O)[nH]1 [Pemetrexed] (partner 0.2 µM)
How it was run: as §1

Row | Cell Line | relative viability (Bosutinib + Bortezomib; first compound 0.01 µM) | relative viability (Bosutinib + Bortezomib; first compound 0.03162 µM) | relative viability (Bosutinib + Bortezomib; first compound 0.1 µM) | relative viability (Bosutinib + Bortezomib; first compound 1 µM) | relative viability (Bosutinib + Linsitinib; first compound 0.01 µM) | relative viability (Bosutinib + Linsitinib; first compound 0.03162 µM) | relative viability (Bosutinib + Linsitinib; first compound 0.1 µM) | relative viability (Bosutinib + Linsitinib; first compound 1 µM) | relative viability (Bosutinib + Tozasertib; first compound 0.01 µM) | relative viability (Bosutinib + Tozasertib; first compound 0.03162 µM) | relative viability (Bosutinib + Tozasertib; first compound 0.1 µM) | relative viability (Bosutinib + Tozasertib; first compound 1 µM) | relative viability (Bosutinib + Phenformin; first compound 0.01 µM) | relative viability (Bosutinib + Phenformin; first compound 0.03162 µM) | relative viability (Bosutinib + Phenformin; first compound 0.1 µM) | relative viability (Bosutinib + Phenformin; first compound 1 µM) | relative viability (Bosutinib + Pemetrexed; first compound 0.01 µM) | relative viability (Bosutinib + Pemetrexed; first compound 0.03162 µM) | relative viability (Bosutinib + Pemetrexed; first compound 0.1 µM) | relative viability (Bosutinib + Pemetrexed; first compound 1 µM)
1 | EKVX | 1.18 | 1.05 | 0.982 | 0.713 | 0.974 | 0.982 | 1 | 0.539 | 0.373 | 0.379 | 0.355 | 0.236 | 0.213 | 0.248 | 0.236 | 0.223 | 0.403 | 0.406 | 0.381 | 0.361
2 | A-427 | 0.958 | 1.04 | 1.08 | 0.958 | 1.1 | 1.13 | 1.21 | 1.02 | 0.231 | 0.227 | 0.217 | 0.194 | 0.46 | 0.369 | 0.331 | 0.26 | 1.01 | 1.07 | 1.02 | 1.01
3 | IA-LM | 0.797 | 0.827 | 0.881 | 0.8 | 0.637 | 0.744 | 0.754 | 0.745 | – | – | – | – | – | – | – | – | – | – | – | –
4 | ChaGo-K-1 | 0.922 | 1.12 | 1.12 | 1.37 | – | – | – | – | 0.22 | 0.254 | 0.224 | 0.213 | 0.536 | 0.503 | 0.497 | 0.515 | 0.244 | 0.26 | 0.249 | 0.265
5 | NCI-H2342 | – | – | – | – | – | – | – | – | 0.51 | 0.449 | 0.526 | 0.517 | 0.565 | 0.68 | 0.56 | 0.643 | 0.783 | 0.799 | 0.813 | 0.841
6 | SK-MES-1 | – | – | – | – | 1.16 | 1.07 | 1.08 | 0.941 | 0.95 | 0.927 | 0.844 | 0.854 | 0.66 | 0.686 | 0.632 | 0.502 | 0.94 | 1.03 | 0.938 | 0.556
7 | LCLC-97TM1 | 0.567 | 0.937 | 0.894 | 0.572 | 0.213 | 0.216 | 0.209 | 0.175 | 0.461 | 0.267 | 0.244 | 0.362 | 0.452 | 0.434 | 0.541 | 0.411 | 0.18 | 0.181 | 0.211 | 0.228
8 | NCI-H2170 | – | – | – | – | – | – | – | – | 0.749 | 0.758 | 0.683 | 0.632 | 0.391 | 0.418 | 0.427 | 0.328 | 0.261 | 0.262 | 0.251 | 0.26
9 | ABC-1 | 0.331 | 0.338 | 0.312 | 0.33 | 0.858 | 0.931 | 0.647 | 0.359 | 0.217 | 0.168 | 0.144 | 0.177 | 0.186 | 0.196 | 0.224 | 0.26 | – | – | – | –
10 | NCI-H1792 | 0.991 | 0.95 | 0.974 | 0.884 | 0.638 | 0.525 | 0.586 | 0.449 | – | – | – | – | 0.256 | 0.254 | 0.327 | 0.251 | 0.902 | 0.792 | 0.891 | 0.764
11 | NCI-H727 | 0.913 | 0.777 | 0.969 | 0.71 | 0.231 | 0.386 | 0.305 | 0.182 | 0.577 | 0.598 | 0.549 | 0.441 | 0.695 | 0.371 | 0.42 | 0.407 | – | – | – | –
12 | NCI-H1944 | – | – | – | – | 1.18 | 1.25 | 1.14 | 0.809 | 0.275 | 0.262 | 0.258 | 0.19 | 0.203 | 0.193 | 0.202 | 0.186 | 0.706 | 0.624 | 0.555 | 0.601
13 | NCI-H1703 | 0.34 | 0.332 | 0.402 | 0.236 | 0.804 | 0.932 | 0.587 | 0.388 | – | – | – | – | – | – | – | – | – | – | – | –
14 | NCI-H1650 | 0.215 | 0.204 | 0.214 | 0.279 | – | – | – | – | 0.344 | 0.407 | 0.36 | 0.295 | 0.434 | 0.344 | 0.339 | 0.318 | 0.304 | 0.366 | 0.404 | 0.301
15 | NCI-H1395 | – | – | – | – | 1.28 | 1.17 | 1.27 | 0.994 | 0.758 | 0.727 | 0.718 | 0.66 | 0.38 | 0.44 | 0.461 | 0.451 | 0.964 | 0.966 | 0.958 | 0.926
16 | NCI-H1793 | – | – | – | – | 0.875 | 0.742 | 0.904 | 0.551 | 0.363 | 0.404 | 0.373 | 0.23 | 0.431 | 0.387 | 0.364 | 0.242 | 0.86 | 0.792 | 0.829 | 0.639
17 | NCI-H522 | – | – | – | – | – | – | – | – | 0.564 | 0.504 | 0.604 | 0.485 | 0.657 | 0.623 | 0.63 | 0.613 | 0.982 | 0.985 | 0.86 | 0.863
18 | SW 900 | – | – | – | – | – | – | – | – | 0.521 | – | 0.586 | 0.507 | 0.577 | – | 0.686 | 0.458 | 0.465 | 0.501 | 0.462 | 0.39
